Assay results as given in BigSolDB 2.1.

O=C1CCC(=O)O1
solubility (mole fraction)
Details	278.15 K	283.15 K	288.15 K	293.15 K	298.15 K	303.15 K
in acetone	0.0721	0.0863	0.103	0.121	0.143	0.166
in acetonitrile	0.114	0.121	0.129	0.137	0.146	0.156
in ethyl acetate	0.0485	0.0544	0.0611	0.0684	0.0771	0.0853
in isopropanol	0.0502	0.0562	0.0632	0.0705	0.0793	0.0889
